Here are results for 20 compounds from US9682976B2, “Protein kinase C inhibitors and uses thereof” (Rigel Pharmaceuticals, Inc., priority 2012, dated 2017).

The experiment deals with PKC mediated IL-2 production. Put plainly: IL-2 ELISA, human primary T cell, anti CD3+CD28+. Type of experiment: cell-based. Particulars: Homo sapiens, T-cell, 24 h, human primary T cells stimulated with αCD3 and αCD28, 24 hours. Summed up: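 Human peripheral blood T cells, pre-expanded with αCD3/αCD28 and IL-2 and then washed free of IL-2, were pre-incubated with compound for 1 h at 37° C. They were then stimulated on plates coated with […] αCD3 and 5 μg/ml αCD28, or with 0.5 ng/ml PMA plus 0.1 uM ionomycin in the counter assay. IL-2 in supernatants was measured by ELISA after 24 h.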
(ELISA stands for enzyme-linked immunosorbent assay.)

For `CC1(C)CC[C@H]2C[C@@H](Nc3nc(Nc4ccc(N5CC(O)C5)c(OC(F)F)c4)ncc3F)CCN21` [Compound 308, 1-(2-(Difluoromethoxy)-4-((4-(((7S,8aS)-3,3-dimethyloctahydroindolizin-7-yl)amino)-5-fluoropyrimidin-2-yl)amino)phenyl)azetidin-3-ol], the EC50 (in general, the concentration needed to bring the measured effect to its halfway point) fell in the range of 500 to 1000 nM. For `[2H]C1(Oc2ccc(Nc3ncc(F)c(N[C@H]4CCN5[C@@H](CCC5(C)C)C4)n3)cc2-n2nnn(C)c2=O)CC(O)C1` (stereo partly drawn) [Compound 309, 1-(5-((4-(((7S,8aS)-3,3-Dimethyloctahydroindolizin-7-yl)amino)-5-fluoropyrimidin-2-yl)amino)-2-(3-hydroxycyclobutoxy-1-d)phenyl)-4-methyl-1,4-dihydro-5H-tetrazol-5-one], the EC50 is 100 to 500 nM. For `CC1(C)CC[C@H]2C[C@@H](Nc3nc(Nc4ccc(OC5CC(OCc6ccccc6)C5)c(Cl)c4)ncc3F)CCN21` (stereo partly drawn) [Compound 310, N2-(4-(3-(Benzyloxy)cyclobutoxy)-3-chlorophenyl)-N4-((7S,8aS)-3,3-dimethyloctahydroindolizin-7-yl)-5-fluoropyrimidine-2,4-diamine] the value was 1000 to 10000 nM. The result for `[2H]C1(Oc2ccc(Nc3ncc(F)c(N[C@H]4CCN5[C@@H](CCC5(C)C)C4)n3)cc2Cl)CC(OCc2ccccc2)C1` (stereo partly drawn) [Compound 311, N2-(4-(3-(benzyloxy)cyclobutoxy-1-d)-3-chlorophenyl)-N4-((7S,8aS)-3,3-dimethyloctahydroindolizin-7-yl)-5-fluoropyrimidine-2,4-diamine] reads 1000 to 10000 nM; that for `CC1(C)CC[C@H]2C[C@@H](Nc3nc(Nc4ccc(OC5CC(O)C5)c(Cl)c4)ncc3F)CCN21` (stereo partly drawn) [Compound 312, 3-(2-Chloro-4-((4-(((7S,8aS)-3,3-dimethyloctahydroindolizin-7-yl)amino)-5-fluoropyrimidin-2-yl)amino)phenoxy)cyclobutan-1-ol], 100 to 500 nM. The result for `[2H]C1(Oc2ccc(Nc3ncc(F)c(N[C@H]4CCN5[C@@H](CCC5(C)C)C4)n3)cc2Cl)CC(O)C1` (stereo partly drawn) [Compound 313, 3-(2-Chloro-4-((4-(((7S,8aS)-3,3-dimethyloctahydroindolizin-7-yl)amino)-5-fluoropyrimidin-2-yl)amino)phenoxy)cyclobutan-3-d-1-ol] reads 100 to 500 nM. For `C[C@@H](O)COc1cc(F)c(Nc2ncc(C#N)c(N[C@@H]3C[C@@H]4CCCN4C(C)(C)C3)n2)cc1-n1nnn(C)c1=O` [Compound 314, 4-((7R,8aS)-octahydro-5,5-dimethylindolizin-7-ylamino)-2-(4-((R)-2-hydroxypropoxy)-2-fluoro-5-(4,5-dihydro-4-methyl-5-oxotetrazol-1-yl)phenylamino)pyrimidine-5-carbonitrile], the EC50 fell in the range of 100 to 500 nM. The result for `CN1C(=O)COc2ccc(Nc3ncc(F)c(N[C@@H]4C[C@@H]5CCCN5C(C)(C)C4)n3)cc21` [Compound 315] reads 1000 to 10000 nM; that for `COCC1(COC)Oc2ccc(Nc3ncc(F)c(N[C@@H]4C[C@@H]5CCCN5C(C)(C)C4)n3)cc2-n2nnnc21` [Compound 316, N^2-(4,5-dihydro-4,4-bis(methoxymethyl)tetrazolo[5,1-c][1,4]benzoxazin-8-yl)-N^4-((7R,8aS)-octahydro-5,5-dimethylindolizin-7-yl)-5-fluoropyrimidin-2,4-diamine], less than 100 nM. For the compound `CN1C(=O)C(C)(C)Oc2ccc(Nc3ncc(F)c(N[C@@H]4C[C@@H]5CCCN5C(C)(C)C4)n3)cc21` [Compound 318], the EC50 was in the range of 500 to 1000 nM.

`COCCN1C(=O)C(C)(C)Oc2ccc(Nc3ncc(F)c(N[C@@H]4C[C@@H]5CCCN5C(C)(C)C4)n3)cc21` [Compound 319] returned a concentration giving a half-maximal response (EC50) of 1000 to 10000 nM. `COC(=O)c1ccc(Nc2ncc(F)c(N[C@@H]3C[C@@H]4CCCN4C(C)(C)C3)n2)cc1C(F)(F)F` [Compound 320]: the EC50 was in the range of 100 to 500 nM. For `CC1(C)C[C@H](Nc2nc(Nc3ccc(NCC(O)CCl)c(C(F)(F)F)c3)ncc2F)C[C@@H]2CCCN21` (stereo partly drawn) [Compound 321, 1-(4-(4-((7R,8aS)-octahydro-5,5-dimethylindolizin-7-ylamino)-5-fluoropyrimidin-2-ylamino)-2-(trifluoromethyl)phenylamino)-3-chloropropa-2-ol] the value was 100 to 500 nM; for `Cn1nnn(-c2cc(Nc3ncc(F)c(N[C@@H]4C[C@@H]5CCCN5C(C)(C)C4)n3)c(F)cc2OCC(N)=O)c1=O` [Compound 322, 2-(4-(4-((7R,8aS)-octahydro-5,5-dimethylindolizin-7-ylamino)-5-fluoropyrimidin-2-ylamino)-5-fluoro-2-(4,5-dihydro-4-methyl-5-oxotetrazol-1-yl)phenoxy)acetamide], 100 to 500 nM; for `CC(C)OC(=O)COc1cc(F)c(Nc2ncc(F)c(N[C@@H]3C[C@@H]4CCCN4C(C)(C)C3)n2)cc1-n1nnn(C)c1=O` [Compound 323, isopropyl 2-(4-(4-((7R,8aS)-octahydro-5,5-dimethylindolizin-7-ylamino)-5-fluoropyrimidin-2-ylamino)-5-fluoro-2-(4,5-dihydro-4-methyl-5-oxotetrazol-1-yl)phenoxy)acetate], 1000 to 10000 nM.

`CC1(C)C[C@H](Nc2nc(Nc3ccc(N4CC(C(N)=O)C4)c(C(F)(F)F)c3)ncc2F)C[C@@H]2CCCN21` [Compound 324, 1-(4-(4-((7R,8aS)-octahydro-5,5-dimethylindolizin-7-ylamino)-5-fluoropyrimidin-2-ylamino)-2-(trifluoromethyl)phenyl)azetidine-3-carboxamide] yielded an EC50 of 500 to 1000 nM.

`CC1(C)C[C@H](Nc2nc(Nc3ccc(NCC(CCl)C(N)=O)c(C(F)(F)F)c3)ncc2F)C[C@@H]2CCCN21` (stereo partly drawn) [Compound 325, 1-(4-(4-((7R,8aS)-octahydro-5,5-dimethylindolizin-7-ylamino)-5-fluoropyrimidin-2-ylamino)-24(2-trifluoromethylphenylamino)methyl)-3-chloropropanamide] had a half-maximal effective concentration (EC50) of 500 to 1000 nM. For `CC1(C)C[C@H](Nc2nc(Nc3ccc(N4CC(O)C4)c(C(F)(F)F)c3)ncc2F)C[C@@H]2CCCN21` [Compound 326, 1-(4-(4-((7R,8aS)-octahydro-5,5-dimethylindolizin-7-ylamino)-5-fluoropyrimidin-2-ylamino)-2-(trifluoromethyl)phenyl)azetidin-3-ol] the value was 100 to 500 nM. On to `CNC(=O)c1ccc(Nc2ncc(F)c(N[C@@H]3C[C@@H]4CCCN4C(C)(C)C3)n2)cc1Cl` [Compound 327, 4-(4-((7R,8aS)-octahydro-5,5-dimethylindolizin-7-ylamino)-5-fluoropyrimidin-2-ylamino)-2-chloro-N-methylbenzamide], for which the EC50 was 500 to 1000 nM. In the case of `Cn1nnn(-c2cc(Nc3ncc(F)c(N[C@@H]4C[C@@H]5CCCN5C(C)(C)C4)n3)ccc2N2CC(O)C2)c1=O` [Compound 328, 1-(5-(4-((7R,8aS)-octahydro-5,5-dimethylindolizin-7-ylamino)-5-fluoropyrimidin-2-ylamino)-2-(3-hydroxyazetidin-1-yl)phenyl)-4-methyl-1H-tetrazol-5(4H)-one], the EC50 was 1000 to 10000 nM.
